# Patent US20210221848A1, “POLYMYXIN DERIVATIVES AND THEIR USE IN COMBINATION THERAPY TOGETHER WITH DIFFERENT ANTIBIOTICS” (priority 2014, published 2021)
# Like-named read-outs stand apart in the source and are kept apart here.
# How the values were obtained:
# [1] = tested on: K. pneumoniae strains with elevated MICs to Polymyxin B; assay: MIC against strains with elevated MICs to Polymyxin B; type: cell-based, Klebsiella pneumoniae; conditions: Table 6D; for MIC K. pneumoniae 062: strain 062, elevated MIC to Polymyxin B; for MIC K. pneumoniae 063: strain 063, elevated MIC to Polymyxin B; for MIC K. pneumoniae 064: strain 064, elevated MIC to Polymyxin B; for MIC K. pneumoniae 655: strain 655, elevated MIC to Polymyxin B
# Summary of the method: (§1)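 Reported MIC is the lower of duplicates agreeing within 2-fold, or the mode where compounds were tested repeatedly. Assays with greater than 2-fold duplicate variation were rejected. Colonies grown 18-24 hours on Mueller-Hinton agar were suspended to 0.5 McFarland as inoculum.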
# [2] = tested on: A. baumanii strains with elevated MICs to Polymyxin B; assay: as above; type: cell-based, Acinetobacter baumannii; conditions: Table 6D; for MIC A. baumannii 053: strain 053, elevated MIC to Polymyxin B; for MIC A. baumannii 056: strain 056, elevated MIC to Polymyxin B; for MIC A. baumannii 068: strain 068, elevated MIC to Polymyxin B; for MIC A. baumannii 070: strain 070, elevated MIC to Polymyxin B
# Summary of the method: as §1
# [3] = tested on: P. aeruginosa strains with elevated MICs to Polymyxin B; assay: MIC against strains with elevated MICs to Polymyxin B; type: cell-based, Pseudomonas aeruginosa; conditions: Table 6D; for MIC P. aeruginosa 065: strain 065, elevated MIC to Polymyxin B; for MIC P. aeruginosa 066: strain 066, elevated MIC to Polymyxin B; for MIC P. aeruginosa 067: strain 067, elevated MIC to Polymyxin B
# Summary of the method: as §1
# [4] = tested on: E. coli strains with elevated MICs to Polymyxin B; assay: as above; type: cell-based, Escherichia coli; conditions: Table 6D; for MIC E. coli 058: strain 058, elevated MIC to Polymyxin B; for MIC E. coli 059: strain 059, elevated MIC to Polymyxin B; for MIC E. coli 060: strain 060, elevated MIC to Polymyxin B; for MIC E. coli 061: strain 061, elevated MIC to Polymyxin B
# Summary of the method: as §1
# [5] = absence of a second agent, Table 6B
Substance,"MIC, A. baumannii ATCC BAA-747 (A. baumannii; sole activity, Table 6C) [micrograms/mL]","MIC, A. baumannii NCTC 13424 (A. baumannii; sole activity, Table 6C) [micrograms/mL]",MIC K. pneumoniae 063 [1] [micrograms/mL],MIC K. pneumoniae 064 [1] [micrograms/mL],MIC A. baumannii 053 [2] [micrograms/mL],MIC A. baumannii 056 [2] [micrograms/mL],MIC A. baumannii 068 [2] [micrograms/mL],"MIC, E. coli ATCC 25922 (E. coli; sole activity, Table 6C) [micrograms/mL]","MIC, K. pneumoniae ATCC 4352 (K. pneumoniae; sole activity, Table 6C) [micrograms/mL]","MIC, P. aeruginosa ATCC 27853 (P. aeruginosa; sole activity, Table 6C) [micrograms/mL]","MIC, P. aeruginosa CCUG 59347 (P. aeruginosa; sole activity, Table 6C) [micrograms/mL]",MIC P. aeruginosa 065 [3] [micrograms/mL],MIC P. aeruginosa 066 [3] [micrograms/mL],MIC P. aeruginosa 067 [3] [micrograms/mL],MIC E. coli 058 [4] [micrograms/mL],MIC E. coli 059 [4] [micrograms/mL],MIC E. coli 060 [4] [micrograms/mL],MIC E. coli 061 [4] [micrograms/mL],MIC K. pneumoniae 655 [1] [micrograms/mL],MIC A. baumannii 070 [2] [micrograms/mL],other results
cis-5- (benzylcarbamoyl) piperidine-3- carbonyl Polymyxin B nonapeptide [Example D66],0.25,0.25,64,32,>256,128,32,0.125,0.125,0.5,0.5,16,32,>256,8,16,8,32,–,–,"MIC K. pneumoniae 062 [1]: 128 micrograms/mL; MIC, E. coli NCTC 13441 (E. coli; sole activity, Table 6C): 0.125 micrograms/mL; MIC, K. pneumoniae ATCC BAA-2146 (K. pneumoniae; sole activity, Table 6C): 0.06 micrograms/mL"
cis-5- (isobutylcarbamoyl) piperidine-3- carbonyl L-Thr-L- Dap-polymyxin B heptapeptide [Example D81],0.03,0.06,64,16,128,32,32,0.06,0.06,0.25,0.5,2,16,>128,8,16,8,32,64,32,"MIC, K. pneumoniae ATCC BAA-2146 (K. pneumoniae; sole activity, Table 6C): 0.06 micrograms/mL"
cis-5-cyclohexyl- piperidine-3- carbonyl L-Thr-L- Dap-polymyxin B heptapeptide [Example D85],0.015,0.06,64,16,64,4,8,0.06,0.06,0.125,0.25,4,16,>128,2,16,4,16,32,8,"MIC, E. coli NCTC 13441 (E. coli; sole activity, Table 6C): 0.125 micrograms/mL"
trans-4- octylpyrrolidine-3- carbonyl polymyxin B nonapeptide [Example D30],–,–,4,1,16,8,2,–,–,–,–,0.5,0.5,16,1,1,1,4,2,1,"MIC, A. baumannii ATCC BAA-747 (A. baumannii; [5]): 1 micrograms/mL; MIC, A. baumannii NCTC 13424 (A. baumannii; [5]): 2 micrograms/mL; MIC, E. coli ATCC 25922 (E. coli; [5]): 2 micrograms/mL; MIC, E. coli NCTC 13441 (E. coli; [5]): 2 micrograms/mL; MIC, K. pneumoniae ATCC 4352 (K. pneumoniae; [5]): 1 micrograms/mL; MIC, P. aeruginosa ATCC 27853 (P. aeruginosa; [5]): 1 micrograms/mL; MIC, P. aeruginosa CCUG 59347 (P. aeruginosa; [5]): 1 micrograms/mL"
trans-4- octylpyrrolidine-3- carbonyl polymyxin B nonapeptide [Example D31],–,–,>128,64,>128,64,4,–,–,–,–,16,32,>64,2,8,4,16,>256,4,"MIC, A. baumannii ATCC BAA-747 (A. baumannii; [5]): 1 micrograms/mL; MIC, A. baumannii NCTC 13424 (A. baumannii; [5]): 2 micrograms/mL; MIC K. pneumoniae 062 [1]: 64 micrograms/mL; MIC, E. coli ATCC 25922 (E. coli; [5]): 2 micrograms/mL; MIC, E. coli NCTC 13441 (E. coli; [5]): 1 micrograms/mL; MIC, K. pneumoniae ATCC 4352 (K. pneumoniae; [5]): 0.5 micrograms/mL; MIC, P. aeruginosa ATCC 27853 (P. aeruginosa; [5]): 0.5 micrograms/mL; MIC, P. aeruginosa CCUG 59347 (P. aeruginosa; [5]): 1 micrograms/mL"
